Data taken from US10130637B2, “Inhibition of histone methyltransferase for cardiac reprogramming” (Duke University, priority 2012, dated 2018).
Counter-ions that a name gives are not always drawn.

Experiments:
[1] = test system: Neonatal cardiac fibroblasts; experiment: cardiac marker gene expression by qPCR in neonatal cardiac fibroblasts treated with HMT inhibitors, no microRNA; assay type: cell-based, mouse; details: 1 μM, after 3 days, absence of microRNA combination (FIG. 9A)
Experimental: Neonatal cardiac fibroblasts were treated with 1 μM of the H3K9me3 inhibitor BIX-01294 (BIX) or 1 μM of the H3K27me3/H4K20me3 inhibitor 3-Deazaneplanocin A hydrochloride (DZNep) from day 1 to day 3 in the absence (A) or presence of microRNA combination (MC) (B). Gene expression of cardiac markers was assessed by qPCR. Data are shown as Avg+Sdv. *P<0.05.
Inhibition of histone methyltransferase activity by small molecule compounds was investigated. Neonatal cardiac fibroblasts were treated with 1 μM of the H3K9 methylation inhibitor BIX-01294 or 1 μM of the H3K27/H4K20 methylation inhibitor 3-Deazaneplanocin A hydrochloride (DZNep). After 3 days, RNA was harvested using standard protocols known in the art, and cardiac gene expression was assessed by qPCR. The cardiac genes tested were Tbx5, Mef2C, Gata4, and Nkx2.5. […] Alternatively, inhibition of H3K9 causes upregulation of other cardiac markers, such asTbx5, and therefore inhibition of H3K9 methylation also promotes the expression of at least one cardiac marker.

[2] = test system: lysine 9 of histone H3 (H3K9); details: has been shown; cited from earlier work
G9a-like protein = molecular target: T1, G9a-like protein (Homo sapiens, UniProt Q9H9B1); details: reported activity; cited from earlier work
T1 sequence (Q9H9B1 1-1298): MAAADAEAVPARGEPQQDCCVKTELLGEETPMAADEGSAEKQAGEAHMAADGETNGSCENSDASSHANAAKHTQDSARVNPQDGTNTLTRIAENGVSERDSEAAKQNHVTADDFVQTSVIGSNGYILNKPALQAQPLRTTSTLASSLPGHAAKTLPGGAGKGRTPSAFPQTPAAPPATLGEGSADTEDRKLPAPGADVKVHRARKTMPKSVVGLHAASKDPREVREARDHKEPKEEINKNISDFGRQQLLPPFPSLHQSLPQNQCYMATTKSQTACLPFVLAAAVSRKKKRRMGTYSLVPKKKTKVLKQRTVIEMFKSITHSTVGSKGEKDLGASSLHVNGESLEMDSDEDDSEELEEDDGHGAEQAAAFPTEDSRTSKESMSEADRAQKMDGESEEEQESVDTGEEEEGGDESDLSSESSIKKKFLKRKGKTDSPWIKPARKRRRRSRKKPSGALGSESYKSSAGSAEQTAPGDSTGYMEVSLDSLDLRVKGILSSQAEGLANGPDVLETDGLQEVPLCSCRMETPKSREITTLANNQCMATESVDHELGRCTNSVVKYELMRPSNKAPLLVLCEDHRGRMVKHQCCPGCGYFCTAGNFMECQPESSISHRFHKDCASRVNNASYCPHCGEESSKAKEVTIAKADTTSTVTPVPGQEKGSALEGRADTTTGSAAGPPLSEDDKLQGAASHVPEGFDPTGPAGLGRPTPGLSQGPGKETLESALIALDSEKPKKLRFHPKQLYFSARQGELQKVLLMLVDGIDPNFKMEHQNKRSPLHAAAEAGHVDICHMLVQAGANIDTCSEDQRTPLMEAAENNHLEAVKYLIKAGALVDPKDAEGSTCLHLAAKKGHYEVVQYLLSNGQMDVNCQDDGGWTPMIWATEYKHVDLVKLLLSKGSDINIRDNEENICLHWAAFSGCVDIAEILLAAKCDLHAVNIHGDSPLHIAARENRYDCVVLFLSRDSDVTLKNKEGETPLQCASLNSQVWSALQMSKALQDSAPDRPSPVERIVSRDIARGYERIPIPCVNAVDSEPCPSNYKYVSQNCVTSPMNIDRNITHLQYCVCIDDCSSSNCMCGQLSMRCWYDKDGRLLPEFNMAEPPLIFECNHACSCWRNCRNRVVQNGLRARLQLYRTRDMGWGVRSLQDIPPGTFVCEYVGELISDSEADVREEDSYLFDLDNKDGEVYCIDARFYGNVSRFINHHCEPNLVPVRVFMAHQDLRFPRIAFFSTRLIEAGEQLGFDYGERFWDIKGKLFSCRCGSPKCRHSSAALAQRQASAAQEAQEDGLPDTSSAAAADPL

[3] = molecular target: T2, G9a histone lysine methyltransferase (Homo sapiens, UniProt Q96KQ7); details: reported activity; cited from earlier work
T2 sequence (Q96KQ7 1-1210): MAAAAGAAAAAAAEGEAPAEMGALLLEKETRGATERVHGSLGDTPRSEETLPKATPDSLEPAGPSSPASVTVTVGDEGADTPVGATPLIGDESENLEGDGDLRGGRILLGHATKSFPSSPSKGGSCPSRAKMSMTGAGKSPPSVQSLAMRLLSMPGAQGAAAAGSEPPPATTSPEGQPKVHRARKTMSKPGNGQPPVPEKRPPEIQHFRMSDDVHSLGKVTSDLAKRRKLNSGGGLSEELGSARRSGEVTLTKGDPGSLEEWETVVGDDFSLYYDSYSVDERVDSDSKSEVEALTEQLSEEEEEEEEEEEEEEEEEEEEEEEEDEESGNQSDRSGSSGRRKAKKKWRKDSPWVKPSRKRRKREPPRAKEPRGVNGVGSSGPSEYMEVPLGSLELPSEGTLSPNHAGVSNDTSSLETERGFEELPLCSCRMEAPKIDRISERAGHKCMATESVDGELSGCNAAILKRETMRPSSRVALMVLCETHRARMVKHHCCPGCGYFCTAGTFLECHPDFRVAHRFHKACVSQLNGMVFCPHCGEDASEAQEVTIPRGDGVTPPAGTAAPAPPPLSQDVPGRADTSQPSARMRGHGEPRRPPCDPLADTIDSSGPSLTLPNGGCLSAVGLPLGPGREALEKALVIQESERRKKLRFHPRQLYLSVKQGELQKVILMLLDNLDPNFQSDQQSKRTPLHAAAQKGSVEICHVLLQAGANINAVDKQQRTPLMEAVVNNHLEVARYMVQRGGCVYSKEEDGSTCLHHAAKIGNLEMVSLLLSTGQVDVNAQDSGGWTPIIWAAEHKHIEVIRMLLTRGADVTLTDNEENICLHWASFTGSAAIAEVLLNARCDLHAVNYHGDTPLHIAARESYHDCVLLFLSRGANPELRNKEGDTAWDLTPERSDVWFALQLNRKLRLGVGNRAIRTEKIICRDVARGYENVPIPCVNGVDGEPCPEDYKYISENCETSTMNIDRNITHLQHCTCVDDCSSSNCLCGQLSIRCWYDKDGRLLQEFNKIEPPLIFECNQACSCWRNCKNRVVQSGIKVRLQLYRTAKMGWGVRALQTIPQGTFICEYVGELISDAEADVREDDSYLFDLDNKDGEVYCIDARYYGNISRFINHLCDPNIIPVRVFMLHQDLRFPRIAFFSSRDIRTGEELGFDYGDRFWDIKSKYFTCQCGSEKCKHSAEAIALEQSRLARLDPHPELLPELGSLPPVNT

[4] = test system: Human fibroblasts (BJ cells); experiment: cardiac marker gene expression by qPCR in miRNA-transfected human fibroblasts with JAK inhibitor; assay type: cell-based; details: 1 μM, compared to cells transfected with the miRNAs alone
Experimental: Gene expression was determined by qPCR. (A) Isl-1 gene expression. (B) […] gene expression. (C) Tbx5 gene expression. (D) Mef2c gene expression. (E) Gata-4 gene expression.
RNA was harvested and prepared according to standard protocols for qPCR gene expression analysis. The expression of cardiac marker genes, such as Isl1, Mesp1, Tbx5, Mef2c, Gata4, and Hand2 was assessed.

In the case of `COc1cc2nc(N3CCCN(C)CC3)nc(NC3CCN(Cc4ccccc4)CC3)c2cc1OC` [BIX-01294, 2-(Hexahydro-4-methyl-1H-1,4-diazepin-1-yl)-6,7-dimethoxy-N-[1-(phenylmethyl)-4-piperidinyl]-4-quinazolinamine trihydrochloride], the “Mef2C cardiac marker gene expression” value [1] was “significant downregulation”, the “Nkx2.5 cardiac marker gene expression” value [1] was “significant downregulation” and the “Tbx5 cardiac marker gene expression” value [1] was “upregulation”. For the same molecule, the “methylation at lysine 9 of histone H3 (H3K9)” value [2] was “inhibit”, the “activity on G9a-like protein” value (G9a-like protein) was “inhibition” and the “activity on G9a histone lysine methyltransferase” value [3] was “inhibition”.
For `CC(C)(C)c1nc2c3ccc(F)cc3c3c(=O)[nH]ccc3c2[nH]1` [JAK inhibitor I, 2-(1,1-Dimethylethyl)-9-fluoro-3,6-dihydro-7H-benz[h]-imidaz[4,5-f]isoquinolin-7-one], the “expression of cardiac markers (Isl1, Mesp1, Tbx5, Mef2c, Gata4, Hand2)” value [4] was “increases”.
